Measurements as given in ChEMBL document CHEMBL1141201, “Phosphinate, sulfonate, and sulfonamidate dipeptides as potential inhibitors of Escherichia coli aminopeptidase N” (Bioorg Med Chem Lett, 2005).

Target: T1, Aminopeptidase N (Escherichia coli K-12, UniProt P04825)
T1 sequence (P04825 whole entry): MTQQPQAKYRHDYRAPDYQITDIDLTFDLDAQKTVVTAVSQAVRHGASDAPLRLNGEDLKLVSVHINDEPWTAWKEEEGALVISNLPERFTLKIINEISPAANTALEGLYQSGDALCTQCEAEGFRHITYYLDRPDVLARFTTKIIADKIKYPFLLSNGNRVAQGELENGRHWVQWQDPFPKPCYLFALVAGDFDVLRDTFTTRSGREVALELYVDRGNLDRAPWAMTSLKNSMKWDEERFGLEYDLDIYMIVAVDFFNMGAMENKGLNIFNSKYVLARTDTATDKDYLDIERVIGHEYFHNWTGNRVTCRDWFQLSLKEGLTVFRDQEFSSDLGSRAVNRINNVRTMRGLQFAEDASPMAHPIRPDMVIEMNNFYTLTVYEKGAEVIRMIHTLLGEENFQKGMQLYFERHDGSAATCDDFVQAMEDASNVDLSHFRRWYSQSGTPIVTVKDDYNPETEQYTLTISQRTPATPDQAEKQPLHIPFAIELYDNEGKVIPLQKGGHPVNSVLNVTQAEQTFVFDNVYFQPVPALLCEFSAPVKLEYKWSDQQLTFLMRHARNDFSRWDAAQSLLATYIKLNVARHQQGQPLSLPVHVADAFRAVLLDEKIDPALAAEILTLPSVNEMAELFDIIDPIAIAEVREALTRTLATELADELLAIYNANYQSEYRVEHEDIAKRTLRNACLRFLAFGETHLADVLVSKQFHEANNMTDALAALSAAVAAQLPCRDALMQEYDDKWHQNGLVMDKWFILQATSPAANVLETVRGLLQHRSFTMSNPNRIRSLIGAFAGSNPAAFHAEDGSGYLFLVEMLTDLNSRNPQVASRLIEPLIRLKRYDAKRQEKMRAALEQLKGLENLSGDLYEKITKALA
Assay: Inhibitory activity against aminopeptidase N (PepN) from Escherichia coli

| Structure (SMILES) | Ki |
| --- | --- |
| CC(NS(=O)(=O)C(C)N)C(=O)O (stereo not given) | > 300 µM |
| CCCCCCCCC(CP(=O)(O)C(C)N)C(=O)O (stereo not given) | 1.1 µM |
| CC(OS(=O)(=O)C(C)N)C(=O)O (stereo not given) | > 300 µM |
| C/C(=C\P(=O)(O)C(C)N)C(=O)O (stereo not given) | 1 µM |
| CC(CP(=O)(O)C(C)N)C(=O)O (stereo not given) | 10 µM |
